Assay results from patent US20240408085A1, “COMPOUND FOR DEGRADATION OF BCL-2 FAMILY PROTEINS AND MEDICAL APPLICATION THEREOF” (XIZANG HAISCO PHARMACEUTICAL CO., LTD., priority 2021, published 2024).

Assays:
[1] = molecular target: T1, BCL-xL proteins (Homo sapiens, UniProt Q07817); test: BCL-xL degradation activity in MOLT-4 cells (western blot, 16 h); format: cell-based
T1 construct: degradation effect on the BCL-xL proteins in MOLT-4 cells; host or cells: MOLT-4
Description: MOLT-4 cells are acute lymphoblastic leukemia cell lines in humans. The cells were purchased from ATCC. Culture conditions: RPMI-1640+10% FBS+1% penicillin-streptomycin solution. The cells were cultured in a 37° C., 5% CO2 incubator. The cells were plated in a 12-well plate, with 2×10^5 cells/well. After plating, compounds at different concentrations were added and cultured in a 37° C., 5% CO2 incubator for 16 h. After the completion of culture, the cells were harvested and RIPA lysis buffer (beyotime, Cat. P0013B) was added. The cells were lysed on ice for 15 minutes and centrifuged at 12000 rpm at 4° C. for 10 minutes. The supernatant protein samples were collected and the protein was quantified by using the BCA kit (Beyotime, Cat. P0009). Then the protein was diluted to 0.8 mg/mL. The expressions of BCL-xL (CST, Cat. 2764S), BCL-2 (CST, Cat. 15071S) and the internal reference β-actin (CST, Cat. 3700S) were detected using a fully automated western blot quantitative analyzer (Proteinsimple). The expression level of BCL-xL or BCL-2 relative to the internal reference was calculated by using Compass software, and the DC50 value was calculated by using GraphPad Prism 8.0 software according to formula (1), wherein the Proteinadministration denoted the relative expression level of BCL-xL or BCL-2 in administration groups at different doses, and the Proteinvehicle denoted the relative expression level of BCL-xL or BCL-2 in the vehicle control group.
Protein %=Proteinadministration/Proteinvehicle×100% formula (1)

[2] = test system: MOLT-4 xenograft tumors; test: Growth inhibition experiment in MOLT-4 xenograft tumor models in mice; format: in vivo; settings: two-way ANOVA and then Dunnett's test, FIG. 1
Description: MOLT-4 cells are acute lymphoblastic leukemia cell lines in humans. The cells were purchased from ATCC and cultured in RPMI-1640+10% FBS+1% o penicillin-streptomycin solution in a 37° C., 5% CO2 incubator. When the cells were in the exponential growth phase, the cells were harvested and counted. An equal volume of matrigel was added. Female SCID Beige mice (4-6 weeks old, 14-16 g, Beijing Vital River Laboratory Animal Technology Co., Ltd.) were inoculated subcutaneously in the right flank with the cells (200 μL, containing 1×10^7 MOLT-4 cells and 50% matrigel). When the tumor volume reached 150-200 mm^3, the mice were randomly grouped for administration according to the tumor volume and body weight of the mice. Three administration dosages were provided: 5 mpk, 15 mpk and 50 mpk. The compounds were injected intraperitoneally (ip) weekly (qw). The mice in all the experimental groups (10 mice in each group) were continuously administered for 4 weeks.
After inoculation, the body weights of the mice were measured three times a week and the long (a) and short (b) diameters of the tumors were measured. The tumor volume was calculated according to the formula: V=ab^2/2. At day 28 after the administration, the experiment was terminated.

[3] = Pharmacokinetic test in monkeys (intravenous); format: in vivo; settings: male, cynomolgus monkey, i.v. 2 mg/kg, plasma
Description: Experimental animals: male cynomolgus monkeys, 3-5 kg, 3-6 years old, 2 monkeys/compound. Purchased from Suzhou Xishan Biotechnology Inc.
Experimental method: on the day of the test, 2 monkeys were randomly grouped according to their body weights. The animals were fasted with water available for 14 to 18 h one day before the administration of a test compound, and were fed 4 hours after the administration.
Before and after the administration, 1.0 mL of blood samples were drawn from the limb veins and placed in an EDTAK2 centrifuge tube. Centrifugation was carried out at 5000 rpm at 4° C. for 10 min, and the plasma was collected. Blood collection time points for the intravenous group were: 0, 5 min, 15 min, 30 min, 1 h, 2 h, 4 h, 6 h, 8 h, 10 h, 12 h, 24 h, and 48 h. Before analysis and detection, all samples were stored at −80° C., and a quantitative analysis of samples was performed using LC-MS/MS.

[4] = test system: platelet (PLT); test: Effect on platelet (PLT) after single intravenous injection; format: in vivo, SD rats; parameters: key to Effect on PLT (↓ decrease): — represents that no significant change was observed; settings: for platelet toxicity relative to the control compound: rats
Description: Experimental animal: 78 SD rats, with an equal number of males and females, male (♂): 290-380 g, female (♀): 220-290 g, 8-10 weeks old, purchased from Zhejiang Vital River Laboratory Animal Technology Co., Ltd.
Experimental protocol: a clear solution was formulated using a vehicle ([…]). The animals were dosed via tail vein a single time (administration volume: 20 mL/kg; bolus injection period: about 4 minutes; recovery period: 7 days).

T1 sequence (Q07817 whole entry): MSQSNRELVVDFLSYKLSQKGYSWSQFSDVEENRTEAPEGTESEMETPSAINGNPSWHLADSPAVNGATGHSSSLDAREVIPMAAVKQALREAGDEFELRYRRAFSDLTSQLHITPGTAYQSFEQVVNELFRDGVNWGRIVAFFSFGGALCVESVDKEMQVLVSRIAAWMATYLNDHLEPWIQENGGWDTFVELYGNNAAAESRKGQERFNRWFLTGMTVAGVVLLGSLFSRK

Q: What does the source list for `Cc1ncsc1-c1ccc([C@H](C)NC(=O)[C@@H]2C[C@@H](O)CN2C(=O)[C@@H](NC(=O)CCCCCC(=O)N2CCN(CC[C@H](CSc3ccccc3)Nc3ccc(S(=O)(=O)NC(=O)c4ccc(N5CCN(CC6=C(c7ccc(Cl)cc7)CCCCC6)CC5)cc4)cc3S(=O)(=O)C(F)(F)F)CC2)C(C)(C)C)cc1` [Compound 6, (2S,4R)-1-((S)-2-(7-(4-((R)-3-((4-(N-(4-(4-((2-(4-chlorophenyl)cyclohept-1-en-1-yl)methyl)piperazin-1-yl)benzoyl)sulfamoyl)-2-((trifluoromethyl)sulfonyl)phenyl)amino)-4-(phenylthio)butyl)piperazin-1-yl)-7-oxoheptanamido)-3,3-dimethylbutanoyl)-4-hydroxy-N—((S)-1-(4-(4-methylthiazol-5-yl)phenyl)ethyl)pyrrolidine-2-carboxamide]?
A: DC50 [1]: 8.4 nM; growth inhibition on MOLT-4 xenograft tumor models, P versus the vehicle control group [2]: < 0.0001; AUC(0-t) [3]: 54600 ± 5910 ng·h/mL; half-life [3]: 9.83 ± 2.2 h; Effect on PLT (↓ decrease) ([4]; SD rats ♀, 6 mg/kg single i.v., 4 h): —; Effect on PLT (↓ decrease) ([4]; SD rats ♀, 6 mg/kg single i.v., D2): ↓60%; Effect on PLT (↓ decrease) ([4]; SD rats ♀, 20 mg/kg single i.v., 4 h): ↓61%; Effect on PLT (↓ decrease) ([4]; SD rats ♀, 20 mg/kg single i.v., D2): ↓84%; Effect on PLT (↓ decrease) ([4]; SD rats ♀, 60 mg/kg single i.v., D8): ↓53%; Effect on PLT (↓ decrease) ([4]; SD rats ♂, 6 mg/kg single i.v., 4 h): ↓16%; Effect on PLT (↓ decrease) ([4]; SD rats ♂, 6 mg/kg single i.v., D2): ↓56%; Effect on PLT (↓ decrease) ([4]; SD rats ♂, 20 mg/kg single i.v., 4 h): ↓51%; Effect on PLT (↓ decrease) ([4]; SD rats ♂, 20 mg/kg single i.v., D2): ↓71%; Effect on PLT (↓ decrease) ([4]; SD rats ♂, 60 mg/kg single i.v., D8): ↓17%; platelet toxicity relative to the control compound ([4]; 6 mg/kg and 20 mg/kg single i.v., 4 h and D2): less platelet toxicity; platelet toxicity relative to the control compound ([4]; 60 mg/kg single i.v., D8): less platelet toxicity
